Assay results reported in PMC10706121, “Bioactive Polyketides from the Natural Complex of the Sea Urchin-Associated Fungi Penicillium sajarovii KMM 4718 and Aspergillus protuberus KMM 4747” (International Journal of Molecular Sciences, 2023).
≈ marks a conversion by molar mass, not a printed value. Entries after “also recorded” stand apart in the source; their conditions may differ. Read-outs that look alike come from different tables or passages of the source.

How the values were obtained:
[1] = system: Pseudomonas fluorescens; parameters: method as in doi:10.1007/s11274-009-0062-y; conditions: cited from earlier work
[2] = system: Bacillus subtilis; parameters: method as in doi:10.1007/s11274-009-0062-y; conditions: cited from earlier work
[3] = target: T1, urease from Canavalia ensiformis (Canavalia ensiformis, UniProt P07374); assay: Urease inhibition assay (indophenol method, cell-free); assay type: biochemical
T1 construct: purchased Sigma
Method: A reaction mixture consisting of 25 µL of enzyme solution (urease from Canavalia ensiformis, Sigma, 1U final concentration) and 5 µL of test compounds dissolved in water (10–300.0 µM final concentration) was preincubated at 37 °C for 60 min in 96-well plates. Then, 55 µL of phosphate-buffered solution with […] of urea was added to each well and incubated at 37 °C for 10 min. The urease inhibitory activity was estimated by determining ammonia production using the indophenol method. Briefly, 45 µL of phenol reagent (1% w/v phenol and 0.005% w/v sodium nitroprusside) and 70 µL of alkali reagent (0.5% w/v NaOH and 0.1% active chloride NaClO) were added to each well. The absorbance was measured after 50 min at 630 nm using a MultiskanFS microplate reader (Thermo Scientific Inc., Beverly, MA, USA). All reactions were performed in triplicate in a final volume of 200 µL. The pH was maintained at 7.3–7.5 in all assays. DMSO 5% was used as a positive control.

[4] = system: Candida albicans KMM 455; assay: Antimicrobial activity, inhibition of microbial growth (OD620); assay type: cell-based; conditions: Candida albicans, KMM455; compounds tested at 100 µM; read-out: Inhibition of Microbial Growth, C. albicans
Method: (§1) The yeast-like fungi of Candida albicans KMM 455 and bacterial strains Staphylococcus aureus ATCC 21027 and Escherichia coli VKPM (B-7935) (Collection of Marine Microorganisms PIBOC FEB RAS) were cultured on solid-medium Mueller Hinton broth with agar (16.0 g/L) in a Petri dish at 37 °C for 24 h.
(§2) The assays were performed in 96-well microplates in appropriate Mueller Hinton broth. Each well contained 90 µL of bacterial or of a yeast-like fungi suspension (10^9 CFU/mL). Then, 10 µL of a compound diluted at concentrations ranging from 1.5 to 100.0 µM using a 2-fold dilution was added (DMSO concentration < 1%). Culture plates were incubated overnight at 37 °C, and the OD620 was measured using a Multiskan FS spectrophotometer (Thermo Scientific Inc., Beverly, MA, USA). The antibiotic gentamicin and antifungal agent nitrofungin were used as positive controls at 1 mg/mL; 1% DMSO in PBS served as a negative control.

[5] = system: Escherichia coli VKPM (B-7935); assay: as above; assay type: cell-based; conditions: Escherichia coli, compounds tested at 100 µM; read-out: Inhibition of Microbial Growth, E. coli
Method: as §1, §2

[6] = system: Staphylococcus aureus ATCC 21027; assay: as above; assay type: cell-based; conditions: Staphylococcus aureus, ATCC21027, compounds tested at 100 µM; read-out: Inhibition of Microbial Growth, S. aureus
Method: as §1, §2

[7] = system: Candida albicans; parameters: method as in doi:10.1007/s11274-009-0062-y; conditions: cited from earlier work
[8] = system: Escherichia coli; parameters: method as in doi:10.1007/s11274-009-0062-y; conditions: cited from earlier work
[9] = Cell viability assay (MTT), cytotoxic activity; assay type: cell-based, human; conditions: 24 h, MTT; for viability at 24 h, 10 µM / viability at 24 h, 100 µM: percent of control
Method: The HepG2 and H9c2 cells were cultured in DMEM medium (Biolot, St. Petersburg, Russia) containing 10% fetal bovine serum (Biolot, St. Petersburg, Russia) and 1% penicillin/streptomycin (Biolot, St. Petersburg, Russia) at 37 °C in a humidified atmosphere with 5% (v/v) CO2.
The HepG2 and H9c2 cells were seeded at concentrations of 5× 10^3 and 3×10^3 cell/well, respectively, and the experiments were started after 24 h. The compounds at concentrations up to 100 µM were added into the wells for 24 h, and the viability of the cells was measured by an MTT (3-(4,5-dimethylthiazol-2-yl)-2,5-diphenyltetrazolium bromide) assay, which was performed according to the manufacturer’s instructions (Sigma-Aldrich, Munich, Germany). All compounds were dissolved with DMSO so that the final concentration of DMSO in the cell culture was not more than 1%. Moreover, DMSO was used as a control. The absorbance of the resulting solution was measured at 570 nm with a microplate reader MultiscanFC (ThermoLabsystems Inc., Beverly, MA, USA). The results are presented as a percent of the control data and calculated IC50.

[10] = human, HepG2 hepatocarcinoma cells

T1 sequence (P07374 whole entry, looked up): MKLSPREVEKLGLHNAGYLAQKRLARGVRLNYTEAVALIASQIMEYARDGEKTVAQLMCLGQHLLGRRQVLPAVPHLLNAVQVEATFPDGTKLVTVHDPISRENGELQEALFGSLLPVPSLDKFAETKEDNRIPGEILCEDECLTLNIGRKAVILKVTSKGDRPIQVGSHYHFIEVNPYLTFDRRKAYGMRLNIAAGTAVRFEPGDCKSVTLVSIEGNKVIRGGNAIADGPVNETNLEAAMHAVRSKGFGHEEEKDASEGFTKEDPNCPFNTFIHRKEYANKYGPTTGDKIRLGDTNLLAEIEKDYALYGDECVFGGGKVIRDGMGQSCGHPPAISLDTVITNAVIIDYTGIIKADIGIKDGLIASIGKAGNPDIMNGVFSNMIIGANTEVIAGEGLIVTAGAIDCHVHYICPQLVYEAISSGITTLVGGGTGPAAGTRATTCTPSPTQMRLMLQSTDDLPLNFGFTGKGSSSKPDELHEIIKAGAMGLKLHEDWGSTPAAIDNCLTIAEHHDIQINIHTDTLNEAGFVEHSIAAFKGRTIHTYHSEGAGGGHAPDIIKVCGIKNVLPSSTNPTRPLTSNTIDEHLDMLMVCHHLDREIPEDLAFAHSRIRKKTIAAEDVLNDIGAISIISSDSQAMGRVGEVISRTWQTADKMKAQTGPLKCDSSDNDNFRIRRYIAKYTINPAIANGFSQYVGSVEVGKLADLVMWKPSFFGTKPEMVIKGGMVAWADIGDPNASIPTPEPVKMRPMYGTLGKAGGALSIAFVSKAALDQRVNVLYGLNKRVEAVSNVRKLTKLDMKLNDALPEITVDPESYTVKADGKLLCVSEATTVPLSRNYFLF

For `Cc1cc(=O)c2c(C)cc(O)cc2o1` [Compound 4, altechromone A], the “MIC against Pseudomonas fluorescens” value [1] is listed as 1.8 µg/mL (≈ 9.46 µM), the “MIC against Bacillus subtilis” value [2] is listed as 3.9 µg/mL (≈ 20.5 µM) and the IC50 [3] is listed as greater than 100 µM. For the same compound, the “effect on urease activity” value ([3]; at concentrations of up to 100 µM) was “no effect; also recorded: very poor”, the inhibition at 100 µM [4] was 11.1 ± 1.3% and the inhibition at 100 µM [5] was 13.6 ± 0.3%. The inhibition at 100 µM [6] was 30.1 ± 1.2%, the “MIC against Candida albicans” value [7] was 3.9 µg/mL (≈ 20.5 µM) and the “MIC against Escherichia coli” value [8] was 3.9 µg/mL (≈ 20.5 µM). It also gave an IC50 at 24 h ([9]; human, HepG2 cells (human hepatocarcinoma), read-out: HepG2 IC50 (cytotoxic effect)) greater than 100 µM, a viability at 24 h, 10 µM [9, 10] of 99.2 ± 6.5% and a viability at 24 h, 100 µM [9, 10] of 92.6 ± 4.1%. The viability at 24 h, 10 µM ([9]; rat, H9c2 cardiomyocyte cells) was 110 ± 2.9%, the viability at 24 h, 100 µM ([9]; rat, H9c2 cardiomyocyte cells) was 96.5 ± 3.6% and the IC50 at 24 h ([9]; rat, H9c2 cells (normal rat cardiomyocytes), read-out: H9c2 IC50 (cytotoxic effect)) was greater than 100 µM.
